Key:
[1] = system: ECHCG; assay: A. Herbicidal pre-emergence action on harmful plants (Tables A); assay type: in vivo, Echinochloa crus-galli; conditions: visual grading after ca. 3 weeks vs untreated controls, 100% = plants have died off, 0% = as control plants
Excerpt: (§1) Seeds of mono- and dicotyledonous weed plants were sown in plastic pots (double sowings with one species of mono- and one species of dicotyledonous weed plants per pot), in sandy loam, and covered with soil. The compounds according to the invention, formulated in the form of wettable powders (WP) or as emulsifiable concentrates (EC), were applied to the surface of the covering soil as aqueous suspension or emulsion, with the addition of 0.5% of an additive, at an application rate of 6001 of water per hectare (converted). Following treatment, the pots were placed in a greenhouse and kept under optimum growth conditions for the test plants. The visual grading of the damage to the test plants was carried out after ca. 3 weeks in comparison to untreated controls (herbicidal effect in percent (%): 100% effect = plants have died off, 0% effect = as control plants). Tables A1 to A12, below, show the effects of selected compounds of the general formula (I) according to table 1 on various harmful plants and an application rate corresponding to 1280 g/ha or below obtained by the experimental procedure mentioned above. Table A1: pre-emergence activity at 1280g/ha against ABUTH in %

[2] = system: LOLRI; assay: as above; assay type: in vivo, Lolium rigidum; conditions: visual grading after ca. 3 weeks vs untreated controls, 100% = plants have died off, 0% = as control plants
Excerpt: as §1

[3] = system: MATIN; assay: as above; assay type: in vivo, Matricaria inodora; conditions: visual grading after ca. 3 weeks vs untreated controls, 100% = plants have died off, 0% = as control plants
Excerpt: as §1

[4] = system: SETVI; assay: as above; assay type: in vivo, Setaria viridis; conditions: visual grading after ca. 3 weeks vs untreated controls, 100% = plants have died off, 0% = as control plants
Excerpt: as §1

[5] = system: STEME; assay: as above; assay type: in vivo, Stellaria media; conditions: visual grading after ca. 3 weeks vs untreated controls, 100% = plants have died off, 0% = as control plants
Excerpt: as §1

[6] = system: POAAN; assay: as above; assay type: in vivo, Poa annua
Excerpt: as §1

[7] = system: DIGSA; assay: as above; assay type: in vivo, Digitaria sanguinalis
Excerpt: as §1

[8] = system: STEME; assay: B. Herbicidal post-emergence action on harmful plants (Tables B); assay type: in vivo, Stellaria media; conditions: application rate 1280 g/ha; Table B6
Experimental: (§2) Seeds of mono- and dicotyledonous weed plants were placed in plastic pots in sandy loam soil (doubly sown with in each case one species of mono- or dicotyledonous weed plants per pot), covered with soil and cultivated in a greenhouse under controlled growth conditions. 2 to 3 weeks after sowing, the test plants were treated at the one-leaf stage. The compounds of the invention, formulated in the form of wettable powders (WP) or as emulsion concentrates (EC), were applied onto the green parts of the plants as aqueous suspension or emulsion with addition of 0.5% additive at a water application rate of 600 liters per hectare (converted). After the test plants had been kept in the greenhouse under optimum growth conditions for about 3 weeks, the activity of the preparations was rated visually in comparison to untreated controls. For example, 100% activity = the plants have died, 0% activity = like control plants. Tables B1 to B12, below, show the effects of selected compounds of the general formula (I) according to table 1 on various harmful plants and an application rate corresponding to 1280 g/ha or below obtained by the experimental procedure mentioned above. Table B1a: post-emergence activity at 1280g/ha against ABUTH in %

[9] = system: AMARE; assay: as above; assay type: in vivo, Amaranthus retroflexus; conditions: application rate 1280 g/ha; Table B8
Experimental: as §2

[10] = system: VERPE; assay: as above; assay type: in vivo, Veronica persica; conditions: application rate 1280 g/ha; Table B11a
Experimental: as §2

[11] = system: AMARE; assay: A. Herbicidal pre-emergence action on harmful plants (Tables A); assay type: in vivo, Amaranthus retroflexus
Excerpt: as §1

[12] = system: ALOMY; assay: as above; assay type: in vivo, Alopecurus myosuroides; conditions: application rate 1280 g/ha; Table A9a
Excerpt: as §1

[13] = system: ABUTH; assay: B. Herbicidal post-emergence action on harmful plants (Tables B); assay type: in vivo, Abutilon theophrasti; conditions: application rate 1280 g/ha; Table B1a
Experimental: as §2

[14] = system: ECHCG; assay: as above; assay type: in vivo, Echinochloa crus-galli; conditions: application rate 1280 g/ha; Table B2a
Experimental: as §2

[15] = system: POAAN; assay: as above; assay type: in vivo, Poa annua; conditions: application rate 1280 g/ha; Table B7a
Experimental: as §2

[16] = application rate 320 g/ha, Table A7b
[17] = application rate 1280 g/ha, visual grading after ca. 3 weeks vs untreated controls, 100% = plants have died off, 0% = as control plants
[18] = application rate 320 g/ha, Table A12b
[19] = application rate 1280 g/ha, Table A12a
[20] = application rate 80 g/ha, Table A7c

Cn1cc(C(=O)N2CCC2Cc2c(F)cccc2Cl)c(COCC(F)F)n1 (racemic) [Example I-107]
pre-emergence activity against ECHCG ([1]; application rate 320 g/ha): 90%
pre-emergence activity against ECHCG ([1]; application rate 1280 g/ha): 100%
pre-emergence activity against LOLRI ([2]; application rate 1280 g/ha): 90%
pre-emergence activity against MATIN ([3]; application rate 1280 g/ha): 100%
pre-emergence activity against SETVI ([4]; application rate 1280 g/ha): 100%
pre-emergence activity against STEME ([5]; application rate 1280 g/ha): 90%
pre-emergence activity against POAAN [6, 16]: 100%
pre-emergence activity against POAAN [6, 17]: 100%
pre-emergence activity against DIGSA [7, 18]: 90%
pre-emergence activity against DIGSA [7, 19]: 100%
post-emergence activity against STEME [8]: 90%
post-emergence activity against AMARE [9]: 90%
post-emergence activity against VERPE [10]: 90%

C=CCOCc1c(C(=O)N2CCCC2Cc2ccccc2F)cnn1C (single isomer, unassigned) [Example I-144]
pre-emergence activity against ECHCG ([1]; application rate 320 g/ha): 90%
pre-emergence activity against ECHCG ([1]; application rate 1280 g/ha): 100%
pre-emergence activity against SETVI ([4]; application rate 1280 g/ha): 90%
pre-emergence activity against STEME ([5]; application rate 1280 g/ha): 90%
pre-emergence activity against POAAN [6, 20]: 100%
pre-emergence activity against POAAN [6, 16]: 100%
pre-emergence activity against POAAN [6, 17]: 100%
pre-emergence activity against DIGSA [7, 19]: 90%
post-emergence activity against AMARE [9]: 90%

COCc1nn(C)cc1C(=O)N1CCCC1Cc1c(F)cccc1Cl (single isomer, unassigned) [Example I-087]
pre-emergence activity against ECHCG ([1]; application rate 80 g/ha): 90%
pre-emergence activity against ECHCG ([1]; application rate 320 g/ha): 100%
pre-emergence activity against ECHCG ([1]; application rate 1280 g/ha): 100%
pre-emergence activity against LOLRI ([2]; application rate 80 g/ha): 100%
pre-emergence activity against LOLRI ([2]; application rate 320 g/ha): 100%
pre-emergence activity against LOLRI ([2]; application rate 1280 g/ha): 100%
pre-emergence activity against MATIN ([3]; application rate 320 g/ha): 90%
pre-emergence activity against MATIN ([3]; application rate 1280 g/ha): 90%
pre-emergence activity against SETVI ([4]; application rate 80 g/ha): 100%
pre-emergence activity against SETVI ([4]; application rate 320 g/ha): 100%
pre-emergence activity against SETVI ([4]; application rate 1280 g/ha): 100%
pre-emergence activity against STEME ([5]; application rate 320 g/ha): 90%
pre-emergence activity against STEME ([5]; application rate 1280 g/ha): 90%
pre-emergence activity against POAAN [6, 20]: 100%
pre-emergence activity against POAAN [6, 16]: 100%
pre-emergence activity against POAAN [6, 17]: 100%
pre-emergence activity against AMARE ([11]; application rate 320 g/ha, Table A8b): 90%
pre-emergence activity against AMARE [11, 17]: 90%
pre-emergence activity against ALOMY [12]: 90%
pre-emergence activity against DIGSA ([7]; application rate 80 g/ha, Table A12c): 90%
pre-emergence activity against DIGSA [7, 18]: 100%
pre-emergence activity against DIGSA [7, 19]: 100%
post-emergence activity against STEME [8]: 90%
post-emergence activity against AMARE [9]: 90%

COCc1nn(C)cc1C(=O)N1CCC1Cc1ccccc1Cl (racemic) [Example I-113]
pre-emergence activity against ECHCG ([1]; application rate 1280 g/ha): 90%
pre-emergence activity against MATIN ([3]; application rate 1280 g/ha): 90%
pre-emergence activity against POAAN [6, 16]: 100%
pre-emergence activity against POAAN [6, 17]: 100%
post-emergence activity against AMARE [9]: 90%

COCc1nn(C)cc1C(=O)N1CCCC1Cc1ccccc1C (racemic) [Example I-078]
pre-emergence activity against ECHCG ([1]; application rate 320 g/ha): 90%
pre-emergence activity against ECHCG ([1]; application rate 1280 g/ha): 100%
pre-emergence activity against LOLRI ([2]; application rate 320 g/ha): 100%
pre-emergence activity against LOLRI ([2]; application rate 1280 g/ha): 100%
pre-emergence activity against MATIN ([3]; application rate 320 g/ha): 90%
pre-emergence activity against MATIN ([3]; application rate 1280 g/ha): 90%
pre-emergence activity against SETVI ([4]; application rate 320 g/ha): 90%
pre-emergence activity against SETVI ([4]; application rate 1280 g/ha): 100%
pre-emergence activity against STEME ([5]; application rate 80 g/ha): 90%
pre-emergence activity against STEME ([5]; application rate 320 g/ha): 90%
pre-emergence activity against STEME ([5]; application rate 1280 g/ha): 90%
pre-emergence activity against POAAN [6, 16]: 100%
pre-emergence activity against POAAN [6, 17]: 100%
pre-emergence activity against ALOMY [12]: 90%
pre-emergence activity against DIGSA [7, 18]: 90%
pre-emergence activity against DIGSA [7, 19]: 90%
post-emergence activity against ABUTH [13]: 90%
post-emergence activity against ECHCG [14]: 90%
post-emergence activity against POAAN [15]: 90%
post-emergence activity against VERPE [10]: 90%
